{
  "source": "patent US20260199382A1",
  "about": "“PHOSPHORAMIDATE MONOSACCARIDES, PHARMACEUTICAL COMPOSITIONS, AND DIAGNOSTIC AND THERAPEUTIC APPLICATIONS” (Surio Therapeutics Co., LTD., priority 2022, published 2026)",
  "assay_type_in_all_cases": "cell-based",
  "conditions_in_all_cases": "48 h; for AAM % / PBS %: 25 μM; for AAM %: mean fluorescence compared with Ac4ManNAz (AAM) positive control; for PBS %: mean fluorescence compared with PBS negative control; for Mean FL (×10^5): compound 25 μM, 37° C., DBCO-biotin then streptavidin-Cy5, mean fluorescence of live cells",
  "key": {"[1]": {"test_system": "A549 cells", "experiment": "Flow cytometry analysis of cell labeling (labeling efficiency of azido compounds) in A549 cells", "description": "(§1) Cells (2.0×10^5 cells/mL, 2 mL) were seeded in a 6-well culture plate and attached at 37° C. overnight. After washed thrice with PBS, the cells were incubated with an azido compound provided herein (25 μM) at 37° C. for 48 h. After washed thrice with PBS, the cells were incubated with DBCO-biotin (50 μM) in 500 μL serum free DMEM at 37° C. for 1 h. The cells were washed thrice with PBS and then incubated with streptavidin-Cy5 (5 μg/mL) in 500 μL serum free DMEM at 37° C. for 1 h. The cells were washed thrice with PBS, followed by addition of 300 μL 1× trypsin/EDTA for digestion. The lifted cells were transferred to a 1.5 mL EP tube, centrifuge at 1,000 rpm for 3 min, and washed with PBS once. Finally, 500 μL PBS containing 4% PFA was added to the cell pellet to fix the cells. The cell suspension was transferred to a flow tube and mixed with 10 μL of a PI working solution (50 μg/mL) at room temperature for 30 min before being subjected to flow cytometry.\n(§2) Flow cytometry was used to characterize the labeling efficiency of a compound provided herein. After cells were labeled with an azido group, DBCO-biotin was added to specifically react with the azido group. Avidin-Cy5 was added bind to the cell surface biotin for a flow cytometry analysis. Dead cells were stained with PI and excluded from the analysis. Results were presented as the mean fluorescence of live cells, compared with PBS as a negative control and Ac4ManNAz (AAM) as a positive control, Ac4ManNAz (AAM, CAS: 361154-30-5)."}, "[2]": {"test_system": "MDA-MB-231", "experiment": "Flow cytometry analysis of cell labeling (labeling efficiency of azido compounds) in MDA-MB-231", "description": "as §1, §2"}, "[3]": {"test_system": "OVCAR3", "experiment": "Flow cytometry analysis of cell labeling (labeling efficiency of azido compounds) in OVCAR3", "description": "as §1, §2"}},
  "data": [
    {"smiles": "CC(=O)OC1O[C@H](COP(=O)(N[C@@H](C)C(=O)OC(C)C)Oc2ccccc2)[C@@H](OC(C)=O)[C@H](OC(C)=O)[C@@H]1NC(=O)CN=[N+]=[N-]", "note": "(stereo partly drawn) [Compound A1, acetyl 2-(2-azidoacetylamino)-2-deoxy-3,4-di-O-acetyl-6-O—(((S)-1-isopropoxy-carbonylethylamino)(phenoxy)phosphoryl)-D-mannopyranoside]", "values": [
      {"measurement": "AAM %", "setting": "[1]", "result": 89, "unit": "%"},
      {"measurement": "PBS %", "setting": "[1]", "result": 540, "unit": "%"},
      {"measurement": "Mean FL (×10^5)", "setting": "[1]", "result": "16.2 ×10^5"},
      {"measurement": "AAM %", "setting": "[2]", "result": 101, "unit": "%"},
      {"measurement": "PBS %", "setting": "[2]", "result": 663, "unit": "%"},
      {"measurement": "Mean FL (×10^5)", "setting": "[2]", "result": "12.6 ×10^5"}
    ]},
    {"smiles": "CC(=O)OC1OC(COP(=O)(N[C@@H](C)C(=O)OC(C)c2ccccc2)Oc2ccccc2)C(OC(C)=O)C(OC(C)=O)C1NC(=O)CN=[N+]=[N-]", "note": "(stereo partly drawn) [Compound A3]", "values": [
      {"measurement": "AAM %", "setting": "[1]", "result": 48, "unit": "%"},
      {"measurement": "PBS %", "setting": "[1]", "result": 294, "unit": "%"},
      {"measurement": "Mean FL (×10^5)", "setting": "[1]", "result": "8.82 ×10^5"}
    ]},
    {"smiles": "CC(=O)OC1OC(COP(=O)(NC(C)(C)C(=O)OC(C)c2ccccc2)Oc2ccccc2)C(OC(C)=O)C(OC(C)=O)C1NC(=O)CN=[N+]=[N-]", "note": "[Compound A4, 2-(2-Azidoacetylamino)-2-deoxy-3,4-di-O-acetyl-6-O-((1-methyl-1-(1-phenyl-ethoxycarbonyl)ethylamino)(phenoxy)phosphoryl)-D-mannopyranoside]", "values": [
      {"measurement": "AAM %", "setting": "[1]", "result": 51, "unit": "%"},
      {"measurement": "PBS %", "setting": "[1]", "result": 311, "unit": "%"},
      {"measurement": "Mean FL (×10^5)", "setting": "[1]", "result": "9.32 ×10^5"}
    ]},
    {"smiles": "CC(=O)OC1OC(COP(=O)(N[C@H](C(=O)OC(C)c2ccccc2)C(C)C)Oc2ccccc2)C(OC(C)=O)C(OC(C)=O)C1NC(=O)CN=[N+]=[N-]", "note": "(stereo partly drawn) [Compound A5, 2-(2-Azidoacetylamino)-2-deoxy-3,4-di-O-acetyl-6-O-(((1S)-1-(1-phenylethoxy-carbonyl)-2-methylpropylamino)(phenoxy)phosphoryl)-D-mannopyranoside]", "values": [
      {"measurement": "AAM %", "setting": "[1]", "result": 20, "unit": "%"},
      {"measurement": "PBS %", "setting": "[1]", "result": 118, "unit": "%"},
      {"measurement": "Mean FL (×10^5)", "setting": "[1]", "result": "3.55 ×10^5"}
    ]},
    {"smiles": "CCCCOC(=O)[C@H](C)NP(=O)(OC[C@H]1OC(OC(C)=O)[C@@H](NC(=O)CN=[N+]=[N-])[C@@H](OC(C)=O)[C@@H]1OC(C)=O)Oc1ccccc1", "note": "(stereo partly drawn) [Compound A18, acetyl 2-(2-azidoacetylamino)-2-deoxy-3,4-di-O-acetyl-6-O—(((S)-1-butoxy-carbonylethylamino)(phenoxy)phosphoryl)-D-mannopyranoside]", "values": [
      {"measurement": "AAM %", "setting": "[2]", "result": 99, "unit": "%"},
      {"measurement": "PBS %", "setting": "[2]", "result": 653, "unit": "%"},
      {"measurement": "Mean FL (×10^5)", "setting": "[2]", "result": "12.4 ×10^5"}
    ]},
    {"smiles": "CC(=O)OC1O[C@H](COP(=O)(N[C@@H](C)C(=O)OC(C)(C)C)Oc2ccccc2)[C@@H](OC(C)=O)[C@H](OC(C)=O)[C@@H]1NC(=O)CN=[N+]=[N-]", "note": "(stereo partly drawn) [Compound A20, acetyl 2-(2-azidoacetylamino)-2-deoxy-3,4-di-O-acetyl-6-O—(((S)-1-tert-butoxy-carbonylethylamino)(phenoxy)phosphoryl)-D-mannopyranoside]", "values": [
      {"measurement": "AAM %", "setting": "[2]", "result": 51, "unit": "%"},
      {"measurement": "PBS %", "setting": "[2]", "result": 338, "unit": "%"},
      {"measurement": "Mean FL (×10^5)", "setting": "[2]", "result": "6.43 ×10^5"}
    ]},
    {"smiles": "CCCCCCOC(=O)[C@H](C)NP(=O)(OC[C@H]1OC(OC(C)=O)[C@@H](NC(=O)CN=[N+]=[N-])[C@@H](OC(C)=O)[C@@H]1OC(C)=O)Oc1ccccc1", "note": "(stereo partly drawn) [Compound A22, Acetyl 2-(2-azidoacetylamino)-2-deoxy-3,4-di-O-acetyl-6-O—(((S)-1-hexoxy-carbonylethylamino)(phenoxy)phosphoryl)-D-mannopyranoside]", "values": [
      {"measurement": "AAM %", "setting": "[2]", "result": 104, "unit": "%"},
      {"measurement": "PBS %", "setting": "[2]", "result": 684, "unit": "%"},
      {"measurement": "Mean FL (×10^5)", "setting": "[2]", "result": "13.0 ×10^5"}
    ]},
    {"smiles": "CCC(CC)COC(=O)[C@H](C)NP(=O)(OC[C@H]1OC(OC(C)=O)[C@@H](NC(=O)CN=[N+]=[N-])[C@@H](OC(C)=O)[C@@H]1OC(C)=O)Oc1ccccc1", "note": "(stereo partly drawn) [Compound A23, Acetyl 2-(2-azidoacetylamino)-2-deoxy-3,4-di-O-acetyl-6-O—(((S)-1-(2-ethyl-butoxy)carbonylethylamino)(phenoxy)phosphoryl)-D-mannopyranoside]", "values": [
      {"measurement": "AAM %", "setting": "[2]", "result": 98, "unit": "%"},
      {"measurement": "PBS %", "setting": "[2]", "result": 642, "unit": "%"},
      {"measurement": "Mean FL (×10^5)", "setting": "[2]", "result": "12.2 ×10^5"}
    ]},
    {"smiles": "CC(=O)OC1O[C@H](COP(=O)(N[C@@H](C)C(=O)OCc2cccnc2)Oc2ccccc2)[C@@H](OC(C)=O)[C@H](OC(C)=O)[C@@H]1NC(=O)CN=[N+]=[N-]", "note": "(stereo partly drawn) [Compound A24, Acetyl 2-(2-azidoacetylamino)-2-deoxy-3,4-di-O-acetyl-6-O—(((S)-1-pyridin-3-ylmethoxycarbonylethylamino)(phenoxy)phosphoryl)-D-mannopyranoside]", "values": [
      {"measurement": "AAM %", "setting": "[3]", "result": 28.7, "unit": "%"},
      {"measurement": "PBS %", "setting": "[3]", "result": 5923, "unit": "%"},
      {"measurement": "Mean FL (×10^5)", "setting": "[3]", "result": "0.77 ×10^5"}
    ]},
    {"smiles": "CC(=O)OC1O[C@H](COP(=O)(N[C@@H](C)C(=O)OCc2ccncc2)Oc2ccccc2)[C@@H](OC(C)=O)[C@H](OC(C)=O)[C@@H]1NC(=O)CN=[N+]=[N-]", "note": "(stereo partly drawn) [Compound A25, Acetyl 2-(2-azidoacetylamino)-2-deoxy-3,4-di-O-acetyl-6-O—(((S)-1-pyridin-4-ylmethoxycarbonylethylamino)(phenoxy)phosphoryl)-D-mannopyranoside]", "values": [
      {"measurement": "AAM %", "setting": "[3]", "result": 26.9, "unit": "%"},
      {"measurement": "PBS %", "setting": "[3]", "result": 5538, "unit": "%"},
      {"measurement": "Mean FL (×10^5)", "setting": "[3]", "result": "0.72 ×10^5"}
    ]},
    {"smiles": "CC(=O)OC1O[C@H](COP(=O)(N[C@@H](C)C(=O)OCc2ccnc3ccccc23)Oc2ccccc2)[C@@H](OC(C)=O)[C@H](OC(C)=O)[C@@H]1NC(=O)CN=[N+]=[N-]", "note": "(stereo partly drawn) [Compound A26, Acetyl 2-(2-azidoacetylamino)-2-deoxy-3,4-di-O-acetyl-6-O—(((S)-1-quinolin-4-ylmethoxycarbonylethylamino)(phenoxy)phosphoryl)-D-mannopyranoside]", "values": [
      {"measurement": "AAM %", "setting": "[3]", "result": 89.6, "unit": "%"},
      {"measurement": "PBS %", "setting": "[3]", "result": 18462, "unit": "%"},
      {"measurement": "Mean FL (×10^5)", "setting": "[3]", "result": "2.4 ×10^5"},
      {"measurement": "AAM %", "setting": "[2]", "result": 144, "unit": "%"},
      {"measurement": "PBS %", "setting": "[2]", "result": 947, "unit": "%"},
      {"measurement": "Mean FL (×10^5)", "setting": "[2]", "result": "18.0 ×10^5"}
    ]},
    {"smiles": "CC(=O)OC1O[C@H](COP(=O)(N[C@@H](C)C(=O)OCc2cccc3ncccc23)Oc2ccccc2)[C@@H](OC(C)=O)[C@H](OC(C)=O)[C@@H]1NC(=O)CN=[N+]=[N-]", "note": "(stereo partly drawn) [Compound A27, Acetyl 2-(2-azidoacetylamino)-2-deoxy-3,4-di-O-acetyl-6-O—(((S)-1-quinolin-5-ylmethoxycarbonylethylamino)(phenoxy)phosphoryl)-D-mannopyranoside]", "values": [
      {"measurement": "AAM %", "setting": "[3]", "result": 93.3, "unit": "%"},
      {"measurement": "PBS %", "setting": "[3]", "result": 19231, "unit": "%"},
      {"measurement": "Mean FL (×10^5)", "setting": "[3]", "result": "2.5 ×10^5"},
      {"measurement": "AAM %", "setting": "[2]", "result": 109, "unit": "%"},
      {"measurement": "PBS %", "setting": "[2]", "result": 716, "unit": "%"},
      {"measurement": "Mean FL (×10^5)", "setting": "[2]", "result": "13.6 ×10^5"}
    ]},
    {"smiles": "CC(=O)OC[C@H]1OC(OP(=O)(N[C@@H](C)C(=O)OC(C)c2ccccc2)Oc2ccccc2)[C@@H](NC(=O)CN=[N+]=[N-])[C@@H](OC(C)=O)[C@@H]1OC(C)=O", "note": "(stereo partly drawn) [Compound B1, (((1S)-1-(1-Phenylethoxy-carbonyl)ethylamino)(phenoxy)phosphoryl) 2-(2-azidoacetylamino)-2-deoxy-3,4,6-tri-O-acetyl-D-mannopyranoside]", "values": [
      {"measurement": "AAM %", "setting": "[1]", "result": 42, "unit": "%"},
      {"measurement": "PBS %", "setting": "[1]", "result": 256, "unit": "%"},
      {"measurement": "Mean FL (×10^5)", "setting": "[1]", "result": "7.67 ×10^5"}
    ]}
  ]
}
